Results published in patent publication US10428080B2, “TBK/IKK inhibitor compounds and uses thereof” (Merck Patent GmbH, priority 2015, dated 2019).
Counter-ions that a name gives are not always drawn.

How the values were obtained:
TBK1 = target: T1, TBK1 (Homo sapiens, UniProt Q9UHD2); experiment: TBK Biochemical Assay; details: read-out: TBK1 IC50
T1 sequence (Q9UHD2 1-729): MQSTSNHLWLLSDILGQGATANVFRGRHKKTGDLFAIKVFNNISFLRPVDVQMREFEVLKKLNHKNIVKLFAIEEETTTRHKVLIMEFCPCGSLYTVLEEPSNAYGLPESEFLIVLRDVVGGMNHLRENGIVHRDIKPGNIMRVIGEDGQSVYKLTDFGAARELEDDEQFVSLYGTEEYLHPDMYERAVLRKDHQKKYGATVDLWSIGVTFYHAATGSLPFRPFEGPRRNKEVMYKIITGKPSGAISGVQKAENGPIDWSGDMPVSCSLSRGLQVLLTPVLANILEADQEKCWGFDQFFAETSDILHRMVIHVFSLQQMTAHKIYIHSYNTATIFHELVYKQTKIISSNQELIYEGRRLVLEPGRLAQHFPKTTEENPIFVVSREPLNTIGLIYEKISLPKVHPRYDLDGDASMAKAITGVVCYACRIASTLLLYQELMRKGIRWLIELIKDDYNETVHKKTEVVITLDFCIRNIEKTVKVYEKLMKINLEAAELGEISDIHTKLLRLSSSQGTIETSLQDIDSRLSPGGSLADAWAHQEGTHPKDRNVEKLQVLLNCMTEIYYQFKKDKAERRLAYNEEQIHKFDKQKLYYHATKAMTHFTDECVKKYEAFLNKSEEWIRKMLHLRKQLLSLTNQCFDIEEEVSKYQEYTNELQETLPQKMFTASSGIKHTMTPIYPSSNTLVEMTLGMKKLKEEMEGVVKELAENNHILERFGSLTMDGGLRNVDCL
Procedure, shortened: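 TBK1 enzyme and substrate incubated with compounds (10-point 1:4 dilution, top 30 uM final, 1% DMSO) for 90 min at 25° C, then stopped. Substrate/product peaks read by microfluidic mobility-shift (Caliper LabChip); 10 uM staurosporine as full-inhibition control.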

IKKε = target: T2, IKKε (Homo sapiens, UniProt Q14164); experiment: IKKe Biochemical Assay; details: read-out: IKKε IC50
T2 sequence (Q14164 1-716): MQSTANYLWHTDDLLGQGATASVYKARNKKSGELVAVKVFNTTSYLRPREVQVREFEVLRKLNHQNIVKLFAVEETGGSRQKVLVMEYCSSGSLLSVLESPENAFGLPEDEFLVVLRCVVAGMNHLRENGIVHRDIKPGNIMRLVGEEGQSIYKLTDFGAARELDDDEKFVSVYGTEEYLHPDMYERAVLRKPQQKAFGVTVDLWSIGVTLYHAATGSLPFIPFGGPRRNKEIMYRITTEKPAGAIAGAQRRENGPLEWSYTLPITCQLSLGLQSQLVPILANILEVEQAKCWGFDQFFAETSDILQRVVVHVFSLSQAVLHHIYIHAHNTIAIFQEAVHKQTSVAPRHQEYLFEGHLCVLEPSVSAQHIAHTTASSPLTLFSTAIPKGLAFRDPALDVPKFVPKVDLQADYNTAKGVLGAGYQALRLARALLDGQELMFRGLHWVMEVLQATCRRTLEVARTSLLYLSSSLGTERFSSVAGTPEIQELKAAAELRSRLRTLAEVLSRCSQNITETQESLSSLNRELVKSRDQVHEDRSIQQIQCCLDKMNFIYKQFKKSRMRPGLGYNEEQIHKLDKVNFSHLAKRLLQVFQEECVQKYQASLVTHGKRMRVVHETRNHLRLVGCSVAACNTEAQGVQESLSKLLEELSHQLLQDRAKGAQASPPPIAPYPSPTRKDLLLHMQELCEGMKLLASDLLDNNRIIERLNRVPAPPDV
Procedure, shortened: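 Recombinant IKKε and substrate were incubated with compound (10-point 1:4 series, top 30 uM final, 1% DMSO) for 90 min at 25° C, then stopped. Substrate-to-product conversion was read by LabChip microfluidic mobility shift; 10 uM staurosporine served as full-inhibition wells.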

IC50 (TBK1) [nM] | IC50 (IKKε) [nM] | SMILES
100 to 1000 | 100 to 1000 | COc1cc(C(=O)N(C)C)ccc1-c1cc2nccc(-c3ccc(C(C)(C)N4CCOCC4)c(C#N)c3)c2o1 [Compound 235, 4-(7-(3-cyano-4-(2-morpholinopropan-2-yl)phenyl)furo[3,2-b]pyridin-2-yl)-3-methoxy-N,N-dimethylbenzamide hydrochloride]
< 100 | < 100 | COc1cc(C(=O)N2CC(S(C)(=O)=O)C2)ccc1-c1cc2nccc(-c3ccc(OC4CCOCC4)c(C#N)c3)c2o1 [Compound 26, 5-{2-[4-(3-Methanesulfonyl-azetidine-1-carbonyl)-2-methoxy-phenyl]-furo[3,2-b]pyridin-7-yl}-2-(tetrahydro-pyran-4-yloxy)-benzonitrile]
100 to 1000 | 100 to 1000 | CN(C)C(=O)c1cnc(-c2cc3nccc(-c4ccc(NC5CCOCC5)c(C#N)c4)c3o2)c(F)c1 [Compound 249, 6-(7-(3-cyano-4-(tetrahydro-2H-pyran-4-ylamino)phenyl)furo[3,2-b]pyridin-2-yl)-5-fluoro-N,N-dimethylnicotinamide]
> 5000 | 100 to 1000 | CN(C)C(=O)c1ccc(-c2cc3nccc(-c4ccc(OC5CCNCC5)c(C#N)c4)c3o2)nc1 [Compound 190]
< 100 | < 100 | COc1cc(C(=O)N2CC[C@H](O)C2)ccc1-c1cc2nccc(-c3ccc(NC4CCOCC4)c(C#N)c3)c2o1 [Compound 103, 5-{2-[4-((S)-3-Hydroxy-pyrrolidine-1-carbonyl)-2-methoxy-phenyl]-furo[3,2-b]pyridin-7-yl}-2-(tetrahydro-pyran-4-ylamino)-benzonitrile]
< 100 | < 100 | COc1cc(C(=O)N2CCCC2C(F)F)ccc1-c1cc2nccc(-c3ccc(OC4CCOCC4)c(C#N)c3)c2o1 (centres unmarked) [Compound 89, 5-{2-[4-(2-Difluoromethyl-pyrrolidine-1-carbonyl)-2-methoxy-phenyl]-furo[3,2-b]pyridin-7-yl}-2-(tetrahydro-pyran-4-yloxy)-benzonitrile]
100 to 1000 | 1000 to 5000 | COc1cc(C(=O)N(C)C)cnc1-c1cc2ncc(OC)c(-c3ccc(NC4CCOCC4)c(C#N)c3)c2o1 [Compound 340, 6-(7-[3-cyano-4-[(oxan-4-yl)amino]phenyl]-6-methoxyfuro[3,2-b]pyridin-2-yl)-5-methoxy-N,N-dimethylpyridine-3-carboxamide]
< 100 | < 100 | CN(C)C(=O)c1ccc(-c2cc3nccc(-c4ccc(N5CC[C@H](F)C5)c(C#N)c4)c3o2)nc1 (single isomer, unassigned) [Compound 272, 6-(7-(3-cyano-4-(3-fluoropyrrolidin-1-yl)phenyl)furo[3,2-b]pyridin-2-yl)-N,N-dimethylnicotinamide hydrochloride]
100 to 1000 | 100 to 1000 | COc1cc(C(=O)N(C)C)ccc1-c1cc2ncc(C)c(-c3ccc(OC4CCOCC4)c(C#N)c3)c2o1 [Compound 269, 4-(7-(3-cyano-4-(tetrahydro-2H-pyran-4-yloxy)phenyl)-6-methylfuro[3,2-b]pyridin-2-yl)-3-methoxy-N,N-dimethylbenzamide hydrochloride]
100 to 1000 | 100 to 1000 | CN(C)C(=O)c1ccc(-c2cc3nccc(-c4ccc(NC5CCOCC5)c(C#N)c4)c3o2)nc1 [Compound 244, 6-(7-(3-cyano-4-(tetrahydro-2H-pyran-4-ylamino)phenyl)furo[3,2-b]pyridin-2-yl)-N,N-dimethylnicotinamide]
< 100 | < 100 | COc1cc(C(=O)N2CC3CCCC3C2)ccc1-c1cc2nccc(-c3ccc(NC4CCOCC4)c(C#N)c3)c2o1 (centres unmarked) [Compound 137, 5-{2-[4-(Hexahydro-cyclopenta[c]pyrrole-2-carbonyl)-2-methoxy-phenyl]-furo[3,2-b]pyridin-7-yl}-2-(tetrahydro-pyran-4-ylamino)-benzonitrile]
100 to 1000 | 100 to 1000 | COc1cc(C(=O)N(C)C)ccc1-c1cc2ncc(Cl)c(-c3ccc(NC4CCOCC4)c(C#N)c3)c2o1 [Compound 266, 4-(6-chloro-7-(3-cyano-4-(tetrahydro-2H-pyran-4-ylamino)phenyl)furo[3,2-b]pyridin-2-yl)-3-methoxy-N,N-dimethylbenzamide]
100 to 1000 | 100 to 1000 | COc1cc(C(=O)N(C)C)ccc1-c1cc2nccc(-c3ccc(OC4CC(C)(C)NC(C)(C)C4)c(C#N)c3)c2o1 [Compound 229, 4-(7-(3-cyano-4-(2,2,6,6-tetramethylpiperidin-4-yloxy)phenyl)furo[3,2-b]pyridin-2-yl)-3-methoxy-N,N-dimethylbenzamide]
< 100 | < 100 | COc1cc(C(=O)N(C)CC(F)F)ccc1-c1cc2nccc(-c3ccc(OC4CCOCC4)c(C#N)c3)c2o1 [Compound 260]
< 100 | < 100 | COc1cc(C(=O)N2CCC3(CCC3)C2)ccc1-c1cc2nccc(-c3ccc(OC4CCOCC4)c(C#N)c3)c2o1 [Compound 114, 5-{2-[4-(6-Aza-spiro[3.4]octane-6-carbonyl)-2-methoxy-phenyl]-furo[3,2-b]pyridin-7-yl}-2-(tetrahydro-pyran-4-yloxy)-benzonitrile]
100 to 1000 | 100 to 1000 | COc1cc(C(=O)N(C)CCO)cnc1-c1cc2ncc(C)c(-c3ccc(OC4CCOCC4)c(C#N)n3)c2o1 [Compound 360, 6-[7-[6-cyano-5-(oxan-4-yloxy)pyridin-2-yl]-6-methylfuro[3,2-b]pyridin-2-yl]-N-(2-hydroxyethyl)-5-methoxy-N-methylpyridine-3-carboxamide hydrochloride]
100 to 1000 | < 100 | CN(C)C(=O)c1ccc(-c2cc3nccc(-c4cc(F)c(NC5CCOCC5)c(C#N)c4)c3o2)cc1 [Compound 224, 4-(7-(3-cyano-5-fluoro-4-(tetrahydro-2H-pyran-4-ylamino)phenyl)furo[3,2-b]pyridin-2-yl)-N,N-dimethylbenzamide hydrochloride]
100 to 1000 | 100 to 1000 | CN(C)C(=O)c1cnc(-c2cc3nccc(-c4cc(F)c(OC5CCOCC5)c(C#N)c4)c3o2)c(F)c1 [Compound 247, 6-(7-(3-cyano-5-fluoro-4-(tetrahydro-2H-pyran-4-yloxy)phenyl)furo[3,2-b]pyridin-2-yl)-5-fluoro-N,N-dimethylnicotinamide]
< 100 | < 100 | CN(C)C(=O)c1ccc(-c2cc3nccc(-c4ccc(OC5CCOCC5)c(C#N)c4)c3o2)c(O)c1 [Compound 264, 4-(7-(3-cyano-4-(tetrahydro-2H-pyran-4-yloxy)phenyl)furo[3,2-b]pyridin-2-yl)-3-hydroxy-N,N-dimethylbenzamide]
< 100 | < 100 | CCc1cc(C(=O)N(C)C)ccc1-c1cc2nccc(-c3ccc(OC4CCOCC4)c(C#N)c3)c2o1 [Compound 263, 4-(7-(3-cyano-4-(tetrahydro-2H-pyran-4-yloxy)phenyl)furo[3,2-b]pyridin-2-yl)-3-ethyl-N,N-dimethylbenzamide]
100 to 1000 | 100 to 1000 | COc1cc(C(=O)N(C)CCO)ccc1-c1cc2ncc(C)c(-c3ccc(NC4CCOCC4)c(C#N)c3)c2o1 [Compound 268, 4-(7-(3-cyano-4-(tetrahydro-2H-pyran-4-ylamino)phenyl)-6-methylfuro[3,2-b]pyridin-2-yl)-N-(2-hydroxyethyl)-3-methoxy-N-methylbenzamide]
< 100 | < 100 | COc1cc(C(=O)N(C)C)ccc1-c1cc2nccc(-c3ccc(NC4CCOCC4)c(C#N)c3)c2o1 [Compound 226, 4-(7-(3-cyano-4-(tetrahydro-2H-pyran-4-ylamino)phenyl)furo[3,2-b]pyridin-2-yl)-3-methoxy-N,N-dimethylbenzamide]
